Results from patent US11613538B2, “Method of inhibiting or reducing a viral infection” (PTC Therapeutics, Inc., priority 2009, dated 2023).

System: hypoxia-induced VEGF production in HeLa cells
Assay: cells
Type: cell-based, human
Details: Homo sapiens, HeLa

O=C(c1ccccc1)N1CCc2c([nH]c3ccc(Cl)cc23)C1c1ccc(OCCCn2cncn2)cc1 (stereo not drawn) [Compound 1139]
EC50: 8 to 40 nM

O=C(c1ccccc1)N1CCc2c([nH]c3ccc(Cl)cc23)C1c1ccc(OCCCN2CCOCC2)cc1 (stereo not drawn) [Compound 1140]
EC50: 40 to 200 nM

O=C(C1CC1)N1CCc2c([nH]c3ccc(Cl)cc23)C1c1ccc(OCCCN2CCOCC2)cc1 (stereo not drawn) [Compound 1141]
EC50: 40 to 200 nM

O=C(C1CC1)N1CCc2c([nH]c3ccc(Cl)cc23)C1c1ccc(OCCCn2cncn2)cc1 (stereo not drawn) [Compound 1142]
EC50: 8 to 40 nM

COc1ccc(OC(=O)N2CCc3c([nH]c4ccc(Cl)cc34)C2c2ccc(OCCCn3nccn3)c(OC)c2)cc1 (stereo not drawn) [Compound 1146]
EC50: 8 to 40 nM

COc1cc(C2c3[nH]c4ccc(Cl)cc4c3CCN2C(=O)Oc2ccc(F)cc2)ccc1OCCCn1ccnn1 (stereo not drawn) [Compound 1147]
EC50: 8 to 40 nM

COc1cc(C2c3[nH]c4ccc(Cl)cc4c3CCN2C(=O)Oc2ccc(F)cc2)ccc1OCCCn1nccn1 (stereo not drawn) [Compound 1148]
EC50: 8 to 40 nM

COc1ccc(C2c3[nH]c4ccc(Cl)cc4c3CCN2C(=O)OCCn2nccn2)cc1 (stereo not drawn) [Compound 1156]
EC50: 8 to 40 nM

COc1ccc(C2c3[nH]c4ccc(Cl)cc4c3CCN2C(=O)OCCn2ccnn2)cc1 (stereo not drawn) [Compound 1157]
EC50: 200 to 1000 nM

COc1ccc(C2c3[nH]c4ccc(Cl)cc4c3CCN2C(=O)OCCn2cncn2)cc1 (stereo not drawn) [Compound 1158]
EC50: > 1000 nM

CC1(C)OC[C@H](CCOc2ccc(C3c4[nH]c5ccc(Cl)cc5c4CCN3C(=O)Oc3ccc(Cl)cc3)cc2)O1 (stereo partly drawn) [Compound 1162]
EC50: < 8 nM

CCOC(=O)N1CCc2c([nH]c3ccc(Cl)cc23)C1c1ccc(OCC[C@H]2COC(C)(C)O2)cc1 (stereo partly drawn) [Compound 1163]
EC50: < 8 nM

CCCOC(=O)N1CCc2c([nH]c3ccc(Cl)cc23)C1c1ccc(OCC[C@H]2COC(C)(C)O2)cc1 (stereo partly drawn) [Compound 1164]
EC50: < 8 nM

CC(C)COC(=O)N1CCc2c([nH]c3ccc(Cl)cc23)C1c1ccc(OCC[C@H]2COC(C)(C)O2)cc1 (stereo partly drawn) [Compound 1165]
EC50: < 8 nM

CC#CCOC(=O)N1CCc2c([nH]c3ccc(Cl)cc23)C1c1ccc(OCC[C@H]2COC(C)(C)O2)cc1 (stereo partly drawn) [Compound 1166]
EC50: < 8 nM

CC(C)(C)COC(=O)N1CCc2c([nH]c3ccc(Cl)cc23)C1c1ccc(OCC[C@H]2COC(C)(C)O2)cc1 (stereo partly drawn) [Compound 1167]
EC50: < 8 nM

O=C(Oc1ccc(Cl)cc1)N1CCc2c([nH]c3ccc(Cl)cc23)C1c1ccc(OCC[C@H](O)CO)cc1 (stereo partly drawn) [Compound 1172]
EC50: < 8 nM

CCOC(=O)N1CCc2c([nH]c3ccc(Cl)cc23)C1c1ccc(OCC[C@H](O)CO)cc1 (stereo partly drawn) [Compound 1173]
EC50: < 8 nM

CCCOC(=O)N1CCc2c([nH]c3ccc(Cl)cc23)C1c1ccc(OCC[C@H](O)CO)cc1 (stereo partly drawn) [Compound 1174]
EC50: 8 to 40 nM

CC(C)COC(=O)N1CCc2c([nH]c3ccc(Cl)cc23)C1c1ccc(OCC[C@H](O)CO)cc1 (stereo partly drawn) [Compound 1175]
EC50: 8 to 40 nM

CC#CCOC(=O)N1CCc2c([nH]c3ccc(Cl)cc23)C1c1ccc(OCC[C@H](O)CO)cc1 (stereo partly drawn) [Compound 1176]
EC50: < 8 nM

CC(C)(C)COC(=O)N1CCc2c([nH]c3ccc(Cl)cc23)C1c1ccc(OCC[C@H](O)CO)cc1 (stereo partly drawn) [Compound 1177]
EC50: < 8 nM

O=C(Oc1ccc(Cl)cc1)N1CCc2c([nH]c3ccc(Cl)cc23)C1c1ccc(OCCCNCCO)cc1 (stereo not drawn) [Compound 1183]
EC50: < 8 nM

O=C(Oc1ccc(Cl)cc1)N1CCc2c([nH]c3ccc(Cl)cc23)C1c1ccc(OCCCN(CCO)CCO)cc1 (stereo not drawn) [Compound 1184]
EC50: < 8 nM

CC(C)(C)OC(=O)N1CCc2c([nH]c3ccc(Cl)cc23)C1c1ccc(OCCCn2ccnn2)cc1 (stereo not drawn) [Compound 1185]
EC50: < 8 nM

CC(C)(C)OC(=O)N1CCc2c([nH]c3ccc(Cl)cc23)C1c1ccc(OCCCn2nccn2)cc1 (stereo not drawn) [Compound 1186]
EC50: < 8 nM

CC(C)(C)OC(=O)N1CCc2c([nH]c3ccc(Cl)cc23)C1c1ccc(OCCCn2cnnc2)cc1 (stereo not drawn) [Compound 1187]
EC50: < 8 nM

CC(C)(C)OC(=O)N1CCc2c([nH]c3ccc(Cl)cc23)C1c1ccc(OCCCn2cncn2)cc1 (stereo not drawn) [Compound 1188]
EC50: < 8 nM

CC(C)(C)OC(=O)N1CCc2c([nH]c3ccc(Cl)cc23)C1c1ccc(OCCCCl)cc1 (stereo not drawn) [Compound 1189]
EC50: < 8 nM

Cc1ccc(C(=O)N2CCc3c([nH]c4ccc(Cl)cc34)C2c2ccc(OCCCN3CCOCC3)cc2)cc1 (stereo not drawn) [Compound 1190]
EC50: 40 to 200 nM

COc1ccc(C(=O)N2CCc3c([nH]c4ccc(Cl)cc34)C2c2ccc(OCCCn3cncn3)cc2)cc1 (stereo not drawn) [Compound 1191]
EC50: 40 to 200 nM

CC(C)C(=O)N1CCc2c([nH]c3ccc(Cl)cc23)C1c1ccc(OCCCN2CCOCC2)cc1 (stereo not drawn) [Compound 1193]
EC50: 40 to 200 nM

CCOC(=O)N1CCc2c([nH]c3ccc(Cl)cc23)C1c1ccc(OC)c(F)c1 (stereo not drawn) [Compound 1198]
EC50: 8 to 40 nM

Clc1ccc2[nH]c3c(c2c1)CCN(c1ncccn1)C3c1ccc(OCCCn2ccnn2)cc1 (stereo not drawn) [Compound 1200]
EC50: < 8 nM

Clc1ccc2[nH]c3c(c2c1)CCN(c1ncccn1)C3c1ccc(OCCCn2cncn2)cc1 (stereo not drawn) [Compound 1201]
EC50: < 8 nM

CCOC(=O)N1CCc2c([nH]c3ccc(Cl)cc23)[C@@H]1c1ccc(OCC[C@H]2COC(C)(C)O2)cc1 [Compound 1202]
EC50: < 8 nM

CC1(C)OC[C@H](CCOc2ccc([C@H]3c4[nH]c5ccc(Cl)cc5c4CCN3C(=O)Oc3ccc(Cl)cc3)cc2)O1 [Compound 1203]
EC50: < 8 nM

CCOC(=O)N1CCc2c([nH]c3ccc(Cl)cc23)[C@@H]1c1ccc(OCC2COC(C)(C)OC2)cc1 [Compound 1206]
EC50: < 8 nM

CCOC(=O)N1CCc2c([nH]c3ccc(Cl)cc23)C1c1ccc(OCC(CO)CO)cc1 (stereo not drawn) [Compound 1208]
EC50: 8 to 40 nM

O=C(Oc1ccc(Cl)cc1)N1CCc2c([nH]c3ccc(Cl)cc23)[C@@H]1c1ccc(OCC(CO)CO)cc1 [Compound 1209]
EC50: < 8 nM

CCOC(=O)N1CCc2c([nH]c3ccc(Cl)cc23)C1c1ccc(OCC(N)=O)cc1 (stereo not drawn) [Compound 1210]
EC50: 8 to 40 nM

NC(=O)COc1ccc(C2c3[nH]c4ccc(Cl)cc4c3CCN2C(=O)OCCF)cc1 (stereo not drawn) [Compound 1211]
EC50: 8 to 40 nM

CC#CCOC(=O)N1CCc2c([nH]c3ccc(Cl)cc23)C1c1ccc(OCC(N)=O)cc1 (stereo not drawn) [Compound 1212]
EC50: 8 to 40 nM

NC(=O)COc1ccc(C2c3[nH]c4ccc(Cl)cc4c3CCN2C(=O)Oc2ccc(Br)cc2)cc1 (stereo not drawn) [Compound 1214]
EC50: 8 to 40 nM

NC(=O)COc1ccc(C2c3[nH]c4ccc(Cl)cc4c3CCN2C(=O)Oc2ccc(F)cc2)cc1 (stereo not drawn) [Compound 1215]
EC50: 8 to 40 nM

C=CCOc1ccc([C@H]2c3[nH]c4ccc(Cl)cc4c3CCN2C(=O)OCC)cc1 [Compound 1217]
EC50: < 8 nM

CCOC(=O)N1CCc2c([nH]c3ccc(Cl)cc23)[C@@H]1c1ccc(O)cc1 [Compound 1218]
EC50: 8 to 40 nM

Clc1ccc2[nH]c3c(c2c1)CCNC3c1ccc(OC2CCOCC2)cc1 (stereo not drawn) [Compound 1220]
EC50: 40 to 200 nM

CCOC(=O)N1CCc2c([nH]c3ccc(Cl)cc23)[C@@H]1c1ccc(OC[C@H](O)CO)cc1 [Compound 1221]
EC50: < 8 nM

CCOC(=O)N1CCc2c([nH]c3ccc(Cl)cc23)[C@@H]1c1ccc(OC[C@@H](O)CO)cc1 [Compound 1222]
EC50: < 8 nM

CCOC(=O)N1CCc2c([nH]c3ccc(Cl)cc23)[C@@H]1c1ccc(OC[C@H]2COC(C)(C)O2)cc1 [Compound 1226]
EC50: < 8 nM

CC1(C)OC[C@H](COc2ccc([C@H]3c4[nH]c5ccc(Cl)cc5c4CCN3C(=O)Oc3ccc(Cl)cc3)cc2)O1 [Compound 1227]
EC50: < 8 nM

CCOC(COc1ccc(C2c3[nH]c4ccc(Cl)cc4c3CCN2C(=O)Oc2ccc(Cl)cc2)cc1)OCC (stereo not drawn) [Compound 1228]
EC50: < 8 nM

O=C(Oc1ccc(Cl)cc1)N1CCc2c([nH]c3ccc(Cl)cc23)C1c1ccc(OC(CO)CO)cc1 (stereo not drawn) [Compound 1231]
EC50: 8 to 40 nM

CC#CCOC(=O)N1CCc2c([nH]c3ccc(Cl)cc23)C1c1ccc(OC)c(F)c1 (stereo not drawn) [Compound 1232]
EC50: 40 to 200 nM

CCCN(CCC)CCCOc1ccc([C@H]2c3[nH]c4ccc(Cl)cc4c3CCN2C(=O)OCC)cc1 [Compound 1233]
EC50: 8 to 40 nM

CCCN(CCC)CCCOc1ccc([C@H]2c3[nH]c4ccc(Cl)cc4c3CCN2C(=O)Oc2ccc(Cl)cc2)cc1 [Compound 1234]
EC50: < 8 nM

O=C(Oc1ccc(Cl)cc1)N1CCc2c([nH]c3ccc(Cl)cc23)[C@@H]1c1ccc(OCCCNC2CCCC2)cc1 [Compound 1235]
EC50: 8 to 40 nM

CCOC(=O)N1CCc2c([nH]c3ccc(Cl)cc23)[C@@H]1c1ccc(OCCCNC2CCCC2)cc1 [Compound 1236]
EC50: 8 to 40 nM

C=CCOc1ccc([C@H]2c3[nH]c4ccc(Cl)cc4c3CCN2c2ncccn2)cc1 [Compound 1237]
EC50: < 8 nM

CC(C)(C)OC(=O)N1CCc2c([nH]c3ccc(Cl)cc23)[C@@H]1c1ccc(OCCCn2ccnn2)cc1 [Compound 1239]
EC50: < 8 nM

CC(C)(C)OC(=O)N1CCc2c([nH]c3ccc(Cl)cc23)[C@@H]1c1ccc(OCCCn2nccn2)cc1 [Compound 1240]
EC50: < 8 nM

Oc1ccc([C@H]2c3[nH]c4ccc(Cl)cc4c3CCN2c2ncccn2)cc1 [Compound 1241]
EC50: 8 to 40 nM

CC1(C)OCC(COc2ccc([C@H]3c4[nH]c5ccc(Cl)cc5c4CCN3c3ncccn3)cc2)CO1 [Compound 1242]
EC50: < 8 nM

OCC(CO)COc1ccc(C2c3[nH]c4ccc(Cl)cc4c3CCN2c2ncccn2)cc1 (stereo not drawn) [Compound 1243]
EC50: 8 to 40 nM

CC1(C)OC[C@H](CCOc2ccc([C@H]3c4[nH]c5ccc(Cl)cc5c4CCN3c3ncccn3)cc2)O1 [Compound 1244]
EC50: < 8 nM

Clc1ccc2[nH]c3c(c2c1)CCN(c1ncccn1)[C@H]3c1ccc(OC[C@@H]2CO2)cc1 [Compound 1245]
EC50: 8 to 40 nM

Clc1ccc2[nH]c3c(c2c1)CCN(c1ncccn1)[C@H]3c1ccc(OC[C@H]2CO2)cc1 [Compound 1246]
EC50: 8 to 40 nM

COc1ccc(C2c3[nH]c4ccc(Cl)cc4c3CCN2C(N)=S)cc1 (stereo not drawn) [Compound 1247]
EC50: 200 to 1000 nM

O[C@H](COc1ccc([C@H]2c3[nH]c4ccc(Cl)cc4c3CCN2c2ncccn2)cc1)CN1CCOCC1 [Compound 1249]
EC50: < 8 nM

CCOC(=O)N1CCc2c([nH]c3ccc(Cl)cc23)[C@@H]1c1ccc(OCCCO)cc1 [Compound 1251]
EC50: < 8 nM

CC(C)OC(=O)N1CCc2c([nH]c3ccc(Cl)cc23)[C@@H]1c1ccc(OCCCO)cc1 [Compound 1252]
EC50: < 8 nM
